We go through 1 molecule from article PMC13192270, “RhlR quorum-sensing receptor ligand sensitivity regulates the differential expression of phenazine genes in Pseudomonas aeruginosa” (Journal of Bacteriology, 2026).

Structures are written as SMILES. Substitutions are numbered along the chain they refer to. Like-named read-outs stand apart in the source and are kept apart here.

Assay [1] relates to RhlR. Details: method as in PMID 28119451. Conditions: cited from earlier work.
For assay [2], the target named is T1, RhlR (L69K) (Pseudomonas aeruginosa, UniProt P54292, L69K).
T1 construct: expressed in transfected cells; host or cells: E. coli carrying pBAD-A-rhlR mutant, pCS26-prhlA-luxCDABE and pACYC-pqsE or empty pACYC
In words: E. coli prhlA-luxCDABE luciferase reporter assay. It counts as cell-based. Conditions: pqsE co-expressed. The source says: (§1) Previous analysis of the RhlR LBP focused on highly conserved residues that were known from other AHL-binding proteins to be important contacts for AHL molecules, particularly the lactone head group. We performed conservation analyses on 300 LuxR-type receptors to determine variable and moderately conserved residues in the LBP (Fig. 1B) and, in conjunction with our previously determined experimental structure of WT RhlR bound to the synthetic agonist mBTL, used for docking C4- and C6HSL. Based on our docking simulations, C4- and C6HSL occupy a similar position in the LBP as mBTL, a highly efficacious activator of RhlR (Fig. 1C; Fig. S1). We targeted residues A44, G46, T58, L69, Y72, D81, I84, W96, and W108 (Fig. 1B and C). These residues were selected because of their proximity to the acyl tail of C4HSL, as well as the differences in conservation that are observed at these sites. We used an E. coli luciferase reporter assay to monitor ligand-dependent activation of WT RhlR and RhlR variants. WT RhlR and RhlR variants were expressed under the control of an arabinose-inducible promoter (Fig. S2). Transcription was monitored by light production via the expression of the luxCDABE operon controlled by the RhlR-dependent promoter of rhlA. Binding of RhlR to the rhlA promoter is highly dependent on the C4HSL-RhlR interaction, based on ChIP-seq analyses performed in P. aeruginosa as well as previously published E. coli reporter systems ([34], [39]). After expressing WT RhlR and RhlR variants in the E. coli reporter system, we performed dose response assays using C4HSL to calculate the concentration of C4HSL required to activate the reporter system to 50% maximum levels (EC50 value; Table 1). As expected, transcription activation by WT RhlR increased with increased C4HSL levels, with an EC50 value of ~2 µM. We observed a range of responses. Figure 1C depicts the targeted residues, which are colored based on the effect of amino acid substitution.
(§2) RhlR requires the accessory-binding protein, PqsE, for maximal activity. To determine if PqsE expression altered the activation of RhlR variants, we assessed AHL-dependent RhlR activation of the prhlA-luxCDABE reporter in the presence of a third plasmid that constitutively expresses PqsE in E. coli. […] RhlR variants that were still active but with increased EC50 values for C4HSL could have their activity enhanced by PqsE. […] Thus, alterations to the LBP can diminish the additive effect of PqsE-dependent transcription, indicating a potential role of allosteric conformational changes dependent on ligand occupancy. […] RhlR variants at residues I84 and W108 could not be activated by C4HSL, and thus, light levels remained low at all concentrations that were tested. Unlike the aforementioned variants, RhlR I84M/W and RhlR W108F/Y were activated by the expression of PqsE (Fig. S4).
(§3) All E. coli strains in this study were grown overnight with shaking in 5 mL Luria-Bertani (LB) media supplemented with 100 µg/mL ampicillin, 50 µg/mL kanamycin, and 15 µg/mL tetracycline at 37°C overnight. Overnight cultures were diluted 1:100 into fresh media, grown at 37°C with shaking for 2 h until reaching OD600 = 0.4. Cultures were induced with a final concentration of 0.1% arabinose, and 198 μL of the induced culture was mixed with 2 μL of C4HSL dilutions in a clear-bottom, black-opaque 96-well plate (Corning) and grown at 37°C with shaking for 4 h. The C4HSL dilution series was performed 1:1 in dimethyl sulfoxide (DMSO) with a top final concentration of 10 μM. Luminescence and optical density were recorded using a Glomax (Promega) plate reader.

Assay [3] has as its target T2, RhlR (I84M) (Pseudomonas aeruginosa, UniProt P54292, I84M).
T2 construct: expressed in transfected cells; host or cells: E. coli carrying pBAD-A-rhlR mutant, pCS26-prhlA-luxCDABE and pACYC-pqsE or empty pACYC
In words: E. coli prhlA-luxCDABE luciferase reporter assay. In kind it is cell-based. Conditions: pqsE co-expressed.
Source text: as §1, §2, §3
(In a reporter assay the amount or activity of a reporter protein is the signal.)

In assay [4] the target is T3, RhlR (G46W) (Pseudomonas aeruginosa, UniProt P54292, G46W).
T3 construct: expressed in transfected cells; host or cells: E. coli carrying pBAD-A-rhlR mutant, pCS26-prhlA-luxCDABE and pACYC-pqsE or empty pACYC
In words: E. coli prhlA-luxCDABE luciferase reporter assay. In kind it is cell-based. Conditions: even at the highest dose of C4HSL tested.
Source text: as §1, §2, §3

Assay [5] deals with T4, RhlR (A44M) (Pseudomonas aeruginosa, UniProt P54292, A44M).
T4 construct: expressed in transfected cells; host or cells: E. coli carrying pBAD-A-rhlR mutant, pCS26-prhlA-luxCDABE and pACYC-pqsE or empty pACYC
In words: E. coli prhlA-luxCDABE luciferase reporter assay. In kind it is cell-based. Particulars: even at the highest dose of C4HSL tested.
Source text: as §1, §2, §3

The target in assay [6] is T5, RhlR (G46M) (Pseudomonas aeruginosa, UniProt P54292, G46M).
T5 construct: expressed in transfected cells; host or cells: E. coli carrying pBAD-A-rhlR mutant, pCS26-prhlA-luxCDABE and pACYC-pqsE or empty pACYC
Put plainly: E. coli prhlA-luxCDABE luciferase reporter assay. It counts as cell-based.
Source text: as §1, §2, §3

For assay [7], the target named is T6, RhlR (L69M) (Pseudomonas aeruginosa, UniProt P54292, L69M).
T6 construct: expressed in transfected cells; host or cells: E. coli carrying pBAD-A-rhlR mutant, pCS26-prhlA-luxCDABE and pACYC-pqsE or empty pACYC
In words: E. coli prhlA-luxCDABE luciferase reporter assay. In kind it is cell-based.
Source text: as §1, §2, §3

Assay [8] concerns the target T7, WT RhlR (Pseudomonas aeruginosa, UniProt P54292).
T7 construct: expressed in transfected cells; host or cells: E. coli carrying pBAD-A-rhlR, pCS26-prhlA-luxCDABE and pACYC-pqsE or empty pACYC
T7 sequence (P54292 1-241): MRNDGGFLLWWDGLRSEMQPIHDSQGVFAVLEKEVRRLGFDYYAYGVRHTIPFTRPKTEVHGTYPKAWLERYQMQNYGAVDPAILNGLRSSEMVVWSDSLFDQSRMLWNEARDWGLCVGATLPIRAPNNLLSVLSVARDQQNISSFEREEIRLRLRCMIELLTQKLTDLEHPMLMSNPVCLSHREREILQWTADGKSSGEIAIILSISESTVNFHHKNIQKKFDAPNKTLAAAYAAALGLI
In words: E. coli prhlA-luxCDABE luciferase reporter assay. In kind it is cell-based.
Source text: as §1, §2, §3

Assay [9] addresses T8, RhlR (T58V) (Pseudomonas aeruginosa, UniProt P54292, T58V).
T8 construct: expressed in transfected cells; host or cells: E. coli carrying pBAD-A-rhlR mutant, pCS26-prhlA-luxCDABE and pACYC-pqsE or empty pACYC
T8 sequence (P54292 1-241 T58V): T7 sequence (P54292 1-241) with T58V
Put plainly: E. coli prhlA-luxCDABE luciferase reporter assay. It counts as cell-based.
Source text: as §1, §2, §3

In assay [10] the target is T9, RhlR (I84W) (Pseudomonas aeruginosa, UniProt P54292, I84W).
T9 construct: expressed in transfected cells; host or cells: E. coli carrying pBAD-A-rhlR mutant, pCS26-prhlA-luxCDABE and pACYC-pqsE or empty pACYC
In words: E. coli prhlA-luxCDABE luciferase reporter assay. In kind it is cell-based. Conditions: pqsE co-expressed.
Source text: as §1, §2, §3

As usually defined, the EC50 is the midpoint of the concentration-response curve. For `CCCC(=O)N[C@H]1CCOC1=O` [C4HSL, N-butyryl-L-homoserine lactone], the EC50 is approximately 5 µM in assay [1]; 13.2 µM in assay [2]; 3.68 µM in assay [3]; 32.7 µM in assay [6] (pqsE co-expressed); 13.8 µM in [7] (Vector (no pqsE)); 1.72 µM in assay [7] (pqsE co-expressed). In addition, the concentration giving a half-maximal response (EC50) in [8] (Vector (no pqsE), read-out: EC50) was 2420 nM; in assay [8] (pqsE co-expressed, read-out: EC50), 534 nM; in assay [8] (without PqsE, read-out: EC50 value), approximately 2000 nM; in assay [9] (Vector (no pqsE)) it was 660 nM; in assay [9] (pqsE co-expressed), 148 nM; in assay [10], 5.2 µM. Also, the “activation by C4HSL in the reporter system” value in assay [4], in [5] and in assay [6] (even at the highest dose of C4HSL tested) was “not activated” throughout. Further, the “C4HSL required for QS activation” value in [8] (statement in discussion) was more than 1 µM.
